In one series the test system is normotensive dogs. The series can be described thus: Ocular surface hyperemia (OSH) in normotensive dogs. The format is in vivo. The settings on record: 0.003%. As for the experimental part:
In Vivo Data (S)-5-(3-(1-(4-hexylphenyl)-5-oxopyrrolidin-2-yl)propyl)thiophene-2-carboxylic acid 2-hydroxyethyl ester (3) was tested in normotensive dogs at 0.003%, dosing once daily for 5 days. The maximum intraocular pressure (IOP) decrease from baseline was 5.9 mmHg (36%) at 54 h; the maximum ocular surface hyperemia (OSH) score was 1.1 at 74 h. This compound was also tested in laser-induced hypertensive monkeys, using one single day dose. At 0.003%, the maximum IOP decrease from baseline was 17 mmHg (44%) at 6 h.
(S)-5-(3-(1-(4-hexylphenyl)-5-oxopyrrolidin-2-yl)propyl)thiophene-2-carboxylic acid (9) was tested in normotensive dogs at 0.003%, dosing once daily for 5 days. The maximum intraocular pressure (IOP) decrease from baseline was 4.7 mmHg (29%) at 6 h; the maximum ocular surface hyperemia (OSH) score was 1.9 at 76 h. This compound was also tested in laser-induced hypertensive monkeys, using one single day dose. At 0.003%, the maximum IOP decrease from baseline was 9 mmHg (23%) at 6 h.
(S)-5-(3-(1-(4-hexylphenyl)-5-oxopyrrolidin-2-yl)propyl)thiophene-2-carboxylic acid isopropyl ester was tested in normotensive dogs at 0.003%, dosing once daily for 4 days. The maximum intraocular pressure (IOP) decrease from baseline was 3.9 mmHg (24%) at 30 h; the maximum ocular surface hyperemia (OSH) score was 0.7 at 28 h. This compound was also tested in laser-induced hypertensive monkeys, using one single day dose. At 0.003%, the maximum IOP decrease from baseline was 12 mmHg (28%) at 6 h.

Series [1] concerns the target T1, EP2 (Homo sapiens, UniProt P43116). The series can be described thus: EP2 flipr. The format is cell-based.
In series [2] the target is T1, EP2. The series can be described thus: EP2 cAMP. The format is cell-based.
In series [3] the target is T1, EP2. The series can be described thus: EP2 binding (Ki).
The target of series [4] is T2, EP4 (Homo sapiens, UniProt P35408). The series can be described thus: EP4 flipr. Format: cell-based.
Series [5] concerns the target T2, EP4. The series can be described thus: EP4 binding (Ki).
The target in a further series is T3, hEP3A (Homo sapiens, UniProt P43115).
T3 sequence (P43115 1-390): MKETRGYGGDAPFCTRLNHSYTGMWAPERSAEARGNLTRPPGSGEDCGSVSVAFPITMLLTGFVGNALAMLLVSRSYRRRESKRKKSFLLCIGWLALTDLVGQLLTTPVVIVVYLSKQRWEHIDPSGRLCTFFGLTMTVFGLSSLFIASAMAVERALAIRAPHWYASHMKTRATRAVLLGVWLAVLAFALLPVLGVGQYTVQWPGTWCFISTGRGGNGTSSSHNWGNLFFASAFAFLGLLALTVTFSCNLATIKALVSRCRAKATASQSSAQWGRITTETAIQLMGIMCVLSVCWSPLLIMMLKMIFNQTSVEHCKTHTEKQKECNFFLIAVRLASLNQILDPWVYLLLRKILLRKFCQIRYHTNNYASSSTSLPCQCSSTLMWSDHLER
The series can be described thus: Other receptors, hEP3A. The format is cell-based.

The next series has as its target T4, hDP (Homo sapiens, UniProt Q13258).
T4 sequence (Q13258 1-359): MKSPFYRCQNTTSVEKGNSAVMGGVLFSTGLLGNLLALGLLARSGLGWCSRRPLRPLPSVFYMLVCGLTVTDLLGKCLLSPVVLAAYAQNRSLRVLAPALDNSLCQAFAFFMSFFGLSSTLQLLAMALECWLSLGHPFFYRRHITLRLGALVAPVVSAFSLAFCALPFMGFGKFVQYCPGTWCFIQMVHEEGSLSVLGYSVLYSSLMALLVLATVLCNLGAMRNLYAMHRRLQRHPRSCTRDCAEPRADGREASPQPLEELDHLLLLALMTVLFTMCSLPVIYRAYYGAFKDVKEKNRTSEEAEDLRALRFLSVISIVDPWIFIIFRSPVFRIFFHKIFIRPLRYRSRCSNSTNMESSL
The series can be described thus: Other receptors, hDP. The format is cell-based.

T1 sequence (P43116 whole entry): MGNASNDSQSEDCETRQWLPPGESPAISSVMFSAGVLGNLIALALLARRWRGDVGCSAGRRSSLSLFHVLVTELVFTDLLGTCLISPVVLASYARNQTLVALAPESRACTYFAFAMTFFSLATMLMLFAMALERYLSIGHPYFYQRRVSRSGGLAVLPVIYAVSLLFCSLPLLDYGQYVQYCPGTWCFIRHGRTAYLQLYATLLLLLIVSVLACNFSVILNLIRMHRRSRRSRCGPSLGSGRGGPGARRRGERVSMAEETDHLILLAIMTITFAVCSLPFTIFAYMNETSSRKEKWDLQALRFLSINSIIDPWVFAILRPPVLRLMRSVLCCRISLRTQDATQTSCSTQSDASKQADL
T2 sequence (P35408 whole entry): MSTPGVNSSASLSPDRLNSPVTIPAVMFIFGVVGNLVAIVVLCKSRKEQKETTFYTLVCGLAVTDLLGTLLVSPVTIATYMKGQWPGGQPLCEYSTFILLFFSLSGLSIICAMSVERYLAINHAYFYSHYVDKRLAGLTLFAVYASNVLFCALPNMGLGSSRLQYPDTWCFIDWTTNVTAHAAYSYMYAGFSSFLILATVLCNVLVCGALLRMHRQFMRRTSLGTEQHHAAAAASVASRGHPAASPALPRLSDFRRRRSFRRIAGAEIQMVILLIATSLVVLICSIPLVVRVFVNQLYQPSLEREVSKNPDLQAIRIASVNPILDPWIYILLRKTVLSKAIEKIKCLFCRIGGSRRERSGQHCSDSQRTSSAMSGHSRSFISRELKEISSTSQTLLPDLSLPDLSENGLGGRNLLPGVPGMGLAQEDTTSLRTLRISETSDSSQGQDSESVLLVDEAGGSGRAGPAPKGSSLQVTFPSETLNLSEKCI

As usually defined, the EC50 is the midpoint of the concentration-response curve. Read a high EC50 as a need for much substance. The term Ki denotes the dissociation constant of the complex between target and ligand, obtained from inhibition or displacement. For `CCCCCCc1ccc(N2C(=O)CC[C@@H]2CCCc2ccc(C(=O)O)s2)cc1` [Compound 9, (S)-5-(3-(1-(4-hexylphenyl)-5-oxopyrrolidin-2-yl)propyl)thiophene-2-carboxylic acid], the “maximum ocular surface hyperemia (OSH) score” value in the series with normotensive dogs (once daily for 5 days, at 76 h) is 1.9. Moreover, the half-maximal effective concentration (EC50) at EP2 [1] was determined as 5 nM; on EP2 [2] it was 0.5 nM; on EP4 [4] it was 11.3 µM; on hEP3A it was 1550 nM; on hDP, 389 nM. Besides, the inhibition constant Ki was found to be 3 nM at EP2 [3] and 2610 nM on EP4 [5].

Take `CCCCCCc1ccc(N2C(=O)CC[C@@H]2CCCc2ccc(C(=O)OC(C)C)s2)cc1` [(S)-5-(3-(1-(4-hexylphenyl)-5-oxopyrrolidin-2-yl)propyl)thiophene-2-carboxylic acid isopropyl ester]: the “maximum ocular surface hyperemia (OSH) score” value with normotensive dogs (once daily for 4 days, at 28 h) came to 0.7.

In the case of `CCCCCCc1ccc(N2C(=O)CC[C@@H]2CCCc2ccc(C(=O)OCCO)s2)cc1` [Compound 3, (S)-5-(3-(1-(4-hexylphenyl)-5-oxopyrrolidin-2-yl)propyl)thiophene-2-carboxylic acid 2-hydroxyethyl ester], the “maximum ocular surface hyperemia (OSH) score” value with normotensive dogs (once daily for 5 days, at 74 h) came out at 1.1.

The record behind these values is patent US8377984B2, “Substituted gamma lactams as therapeutic agents” (Allergan, Inc., priority 2008, dated 2013).
